Results: patent US10975084B2, “KDM5 inhibitors” (Merck Sharp & Dohme Corp., priority 2016, dated 2021)
pIC50: −log10 of the molar value.

molecular target: KDM5B (Homo sapiens (Human), UniProt Q9UGL1); assay: KDM5B TR-FRET Enzyme Activity Assay; assay type: biochemical; settings: LANCE TR-FRET; 5 nM full-length recombinant KDM5B; ten point titration 100000 nM to 5.08 nM
Summary of the method: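 Full-length KDM5B from Sf21 cells (5 nM) was preincubated 30 min with compound in HEPES pH 7.3 buffer with ascorbate and 2 μM Fe(II). Reaction with 500 nM biotinylated H3K4Me3 peptide and 500 nM α-ketoglutarate ran 60 min. Product was detected by TR-FRET (Eu-anti-H3K4Me1-2/streptavidin-Dylight 650, 665/615 ratio); IC50 came from a 4-parameter fit.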

Chain of KDM5B (Q9UGL1 whole entry): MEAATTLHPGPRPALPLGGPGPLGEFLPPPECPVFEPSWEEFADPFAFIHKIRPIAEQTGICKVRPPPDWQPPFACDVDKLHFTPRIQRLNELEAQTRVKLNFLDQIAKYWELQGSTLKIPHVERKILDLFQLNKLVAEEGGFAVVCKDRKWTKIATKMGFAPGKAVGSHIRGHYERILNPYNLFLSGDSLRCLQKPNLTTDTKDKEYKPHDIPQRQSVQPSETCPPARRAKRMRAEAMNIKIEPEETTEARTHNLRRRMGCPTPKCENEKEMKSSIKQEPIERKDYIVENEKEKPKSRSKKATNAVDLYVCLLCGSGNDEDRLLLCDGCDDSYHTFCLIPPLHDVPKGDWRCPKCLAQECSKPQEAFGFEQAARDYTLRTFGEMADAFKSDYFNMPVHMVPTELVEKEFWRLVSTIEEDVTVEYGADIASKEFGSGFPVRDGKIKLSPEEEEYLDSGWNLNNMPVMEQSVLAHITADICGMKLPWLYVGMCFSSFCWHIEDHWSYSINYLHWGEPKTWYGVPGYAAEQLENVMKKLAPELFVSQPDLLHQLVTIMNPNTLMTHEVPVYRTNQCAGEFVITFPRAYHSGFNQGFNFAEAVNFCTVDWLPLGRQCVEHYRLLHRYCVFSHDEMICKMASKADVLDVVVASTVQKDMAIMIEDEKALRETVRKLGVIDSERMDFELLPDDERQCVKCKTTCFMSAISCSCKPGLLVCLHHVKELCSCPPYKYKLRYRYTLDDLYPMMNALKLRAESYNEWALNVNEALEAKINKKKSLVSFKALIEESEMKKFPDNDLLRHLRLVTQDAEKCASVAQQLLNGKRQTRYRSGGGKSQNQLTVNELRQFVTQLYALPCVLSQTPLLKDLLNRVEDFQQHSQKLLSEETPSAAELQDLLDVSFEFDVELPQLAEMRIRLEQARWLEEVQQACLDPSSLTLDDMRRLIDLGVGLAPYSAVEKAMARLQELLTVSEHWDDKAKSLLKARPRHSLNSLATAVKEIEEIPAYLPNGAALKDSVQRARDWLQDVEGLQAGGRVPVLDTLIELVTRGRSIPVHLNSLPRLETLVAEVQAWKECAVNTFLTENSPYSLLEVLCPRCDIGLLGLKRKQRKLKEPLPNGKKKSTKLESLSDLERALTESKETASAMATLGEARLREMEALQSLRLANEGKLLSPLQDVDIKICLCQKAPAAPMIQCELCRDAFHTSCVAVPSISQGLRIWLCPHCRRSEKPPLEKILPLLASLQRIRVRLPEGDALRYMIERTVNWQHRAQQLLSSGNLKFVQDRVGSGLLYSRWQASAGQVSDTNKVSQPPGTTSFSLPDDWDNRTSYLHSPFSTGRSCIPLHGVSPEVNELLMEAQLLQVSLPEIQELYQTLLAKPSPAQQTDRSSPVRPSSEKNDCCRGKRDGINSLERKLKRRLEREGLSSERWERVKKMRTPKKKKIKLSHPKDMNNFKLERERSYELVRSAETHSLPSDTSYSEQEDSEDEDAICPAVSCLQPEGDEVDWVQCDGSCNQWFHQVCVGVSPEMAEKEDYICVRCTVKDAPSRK

SMILES	pIC50
CC(C)c1c(-c2csc(-n3cccc3)n2)[nH]c2ncnn2c1=O [Example 11-140, 6-(1-methylethyl)-5-[2-(1H-pyrrol-1-yl)-1,3-thiazol-4-yl][1,2,4]triazolo[1,5-a]pyrimidin-7(4H)-one]	6.91
CC(C)c1csc(-c2[nH]c3ncnn3c(=O)c2C(C)C)c1 [Example 11-141, 6-(1-methylethyl)-5-[4-(1-methylethyl)thiophen-2-yl][1,2,4]triazolo[1,5-a]pyrimidin-7(4H)-one]	7.22
CC(C)c1c(-c2cc(-c3ccccc3)cs2)[nH]c2ncnn2c1=O [Example 11-144, 6-(1-methylethyl)-5-(4-phenylthiophen-2-yl)[1,2,4]triazolo[1,5-a]pyrimidin-7(4H)-one]	7.12
CC(C)c1c(-c2cnn(C(C)(C)C)c2)[nH]c2ncnn2c1=O [Example 11-145, 5-(1-tert-butyl-1H-pyrazol-4-yl)-6-(1-methylethyl)[1,2,4]triazolo[1,5-a]pyrimidin-7(4H)-one]	8.29
CC(C)c1c(-c2cccs2)[nH]c2ncnn2c1=O [Example 11-147, 6-(1-methylethyl)-5-thiophen-2-yl[1,2,4]triazolo[1,5-a]pyrimidin-7(4H)-one]	6.38

More lines, now with the values ahead:

pIC50	SMILES
6.95	CC(C)c1c(-c2cc(C3CCC3)cs2)[nH]c2ncnn2c1=O [Example 11-142, 5-(4-cyclobutylthiophen-2-yl)-6-(1-methylethyl)[1,2,4]triazolo[1,5-a]pyrimidin-7(4H)-one]
7.10	CC(C)c1c(-c2cc(C3CC3)cs2)[nH]c2ncnn2c1=O [Example 11-143, 5-(4-cyclopropylthiophen-2-yl)-6-(1-methylethyl)[1,2,4]triazolo[1,5-a]pyrimidin-7(4H)-one]
8.28	CC(C)CCn1cc(-c2[nH]c3ncnn3c(=O)c2C(C)C)cn1 [Example 11-146, 5-[1-(3-methylbutyl)-1H-pyrazol-4-yl]-6-(1-methylethyl)[1,2,4]triazolo[1,5-a]pyrimidin-7(4H)-one]
7.51	CC(C)c1c(-c2ccc(C(F)(F)CO)nc2)[nH]c2ncnn2c1=O [Example 12-2, 5-[6-(1,1-difluoro-2-hydroxyethyl)pyridin-3-yl]-6-(1-methylethyl)[1,2,4]triazolo[1,5-a]pyrimidin-7(4H)-one]
7.65	CC(C)c1c(-c2cncc(CO)c2)[nH]c2ncnn2c1=O [Example 12-3, 5-[5-(hydroxymethyl)pyridin-3-yl]-6-(1-methylethyl)[1,2,4]triazolo[1,5-a]pyrimidin-7(4H)-one]
